Data: publication PMC7450046, “Making of water soluble curcumin to potentiate conventional antimicrobials by inducing apoptosis-like phenomena among drug-resistant bacteria” (Scientific Reports, 2020)
In brackets after ≈: the same amount, converted by molar mass. Like-named read-outs stand apart in the source and are kept apart here.

What was measured:
[1] = test system: Escherichia coli (507/2019); experiment: MIC/MBC, broth micro-dilution; type: cell-based; details: for MIC: 18 h
Procedure: (§1) The minimum inhibitory concentration of sCur was determined by the broth microdilution method as described earlier with minor modifications.
(§2) Briefly, Staphylococcus aureus, Staphylococcus epidermidis, Klebsiella pneumoniae, Escherichia coli, and Pseudomonas aeruginosa were grown in 10 ml BHI broth aerobically for 18 h. Bacterial culture (500 µl) was then diluted to 1.5 ml fresh BHI broth. […] The stock was diluted in a series of two-fold dilutions ranging from 0.5 to 512 µg/ml in sterile BHI broth in microtiter wells. Each well of the 96-well microtiter plate was then inoculated with 190 µl of standardized cell suspension (10^5 CFU/ml) and incubated at 37 °C for next 18 h along with the 20 µl sCur suspension. The MIC was defined as the lowest concentration of sCur at which no obvious growth was observed.

[2] = test system: Klebsiella pneumoniae (10,825/2019); experiment: MIC/MBC, broth micro-dilution; type: cell-based; details: for MIC: 18 h
Procedure: as §1, §2

[3] = test system: Pseudomonas aeruginosa (2,412/2019); experiment: MIC/MBC, broth micro-dilution; type: cell-based; details: for MIC: 18 h
Procedure: as §1, §2

[4] = test system: Staphylococcus aureus (MRSA, 2,862/2019); experiment: MIC/MBC, broth micro-dilution; type: cell-based; details: for MIC: 18 h
Procedure: as §1, §2

[5] = test system: Escherichia coli (ATCC25922); experiment: MIC/MBC, broth micro-dilution; type: cell-based; details: for MIC: ATCC25922, 18 h
Procedure: as §1
(§3) Briefly, Staphylococcus aureus, Staphylococcus epidermidis, Klebsiella pneumoniae, Escherichia coli, and Pseudomonas aeruginosa were grown in 10 ml BHI broth aerobically for 18 h. Bacterial culture (500 µl) was then diluted to 1.5 ml fresh BHI broth. The sCur stock solution (1,024 µg/ml) was used for the study. The stock was diluted in a series of two-fold dilutions ranging from 0.5 to 512 µg/ml in sterile BHI broth in microtiter wells. Each well of the 96-well microtiter plate was then inoculated with 190 µl of standardized cell suspension (10^5 CFU/ml) and incubated at 37 °C for next 18 h along with the 20 µl sCur suspension. The MIC was defined as the lowest concentration of sCur at which no obvious growth was observed. Positive controls were having either ciprofloxacin or meropenem (for gram positive and gram negative respectively) while the sterile broth served as negative control and all the experiments were performed in triplicate.

[6] = test system: Klebsiella pneumoniae (ATCC700603); experiment: MIC/MBC, broth micro-dilution; type: cell-based; details: for MIC: ATCC700603, 18 h
Procedure: as §1, §3

[7] = test system: Pseudomonas aeruginosa (ATCC25619); experiment: MIC/MBC, broth micro-dilution; type: cell-based; details: for MIC: ATCC25619, 18 h
Procedure: as §1, §3

[8] = test system: Staphylococcus aureus (ATCC29213); experiment: MIC/MBC, broth micro-dilution; type: cell-based; details: for MIC: ATCC29213, 18 h
Procedure: as §1, §3

[9] = test system: Staphylococcus epidermidis (ATCC35984); experiment: MIC/MBC, broth micro-dilution; type: cell-based; details: for MIC: ATCC35984, 18 h
Procedure: as §1, §3

[10] = test system: Gram-positive and Gram-negative MDR isolates; experiment: MIC, broth micro-dilution, summary for MDR isolates; type: cell-based
Procedure: as §1, §2

Klebsiella pneumoniae [11] = experiment: DPH flow cytometry, membrane dynamics; type: cell-based; details: 256 µg/ml
Klebsiella pneumoniae [12] = experiment: DiSC3-5 flow cytometry, membrane depolarization; details: 256 µg/ml
Procedure: (§6) The membrane potential-sensitive dye DiSC3-5 was used to measure plasma membrane depolarization in bacterial membranes as described earlier with modifications[44]. The isolates were cultured in BHI broth overnight with subsequent dilution to adjust the absorbance to 0.05 at λmax 600. […] This was further incubated for 20 min with 1 µM DiSC3-5. Negative control was without any drug while native curcumin treated bacterial lane served as positive control. The fluorescence was measured employing Synergy H1 Hybrid Multi-Mode Reader with excitation at 622 nm and emission at 670 nm. Besides, the percentages of bacterial cells showing fluorescence were measured using the flow cytometry (C6 BD Accuri, Becton–Dickinson, San Jose, CA, USA).

[13] = test system: Escherichia coli (507/2019); experiment: Modified MIC in combination, checkerboard titration; type: cell-based
Procedure: (§4) Serial dilutions of with these antibiotics were mixed in cation-adjusted Muller Hinton broth. The inoculum was prepared from the overnight grown colonies on MHA. The final bacterial concentration after inoculation was […].

[14] = test system: Klebsiella pneumoniae (10,825/2019); experiment: as above; type: cell-based
Procedure: as §4

[15] = test system: Pseudomonas aeruginosa (2,412/2019); experiment: as above; type: cell-based
Procedure: as §4

[16] = test system: Staphylococcus aureus (MRSA, 2,862/2019); experiment: microbe, parasite or virus in culture
Procedure: as §4

[17] = test system: K. pneumoniae clinical isolate; experiment: DPH steady-state fluorimetry, membrane dynamics; type: cell-based, Klebsiella pneumoniae; details: vancomycin alone; sCur at MIC alone 120 min; 8 µg/ml sCur with 16 µg/ml vancomycin 60 min; untreated 93.44 ± 2.646
Procedure: (§5) We utilized the previously described method. Multidrug-resistant clinical isolates of Staphylococcus aureus, Staphylococcus epidermidis, Klebsiella pneumoniae, Escherichia coli, and Pseudomonas aeruginosa were treated with MIC concentration of sCur, vancomycin, and in combination (here data of only Klebsiella pneumoniae is shown). We incubated the treated cells for 120 min with shaking (100 rpm) at 37 °C, with subsequent harvesting. The pellet was re-suspended and re-pelleted. We fixed the pellet with 0.4% paraformaldehyde with subsequent resuspension in PBS. We later on incubated the re-suspended cells with 0.5 mM 1, 6-diphenyl-1, 3, 5-hexatriene (DPH) at 37 °C for 60 min, pelleted and washed thrice with PBS. The fluorescence intensity was monitored spectrophotometrically employing Synergy H1 Hybrid Multi-Mode Reader at 350 nm (excitation) and 425 nm (emission).

MRSA clinical isolate = experiment: DPH steady-state fluorimetry, membrane dynamics; type: cell-based, Staphylococcus aureus; details: vancomycin alone; 8 µg/ml sCur with 16 µg/ml vancomycin 60 min; untreated 89.86 ± 2.07
Procedure: as §5

[18] = test system: multi-drug resistant K. pneumoniae and S. aureus isolates; experiment: DiSC3-5 steady-state fluorimetry, membrane depolarization; type: cell-based, Klebsiella pneumoniae and Staphylococcus aureus; details: 8 µg/ml sCur with 16 µg/ml vancomycin, 120 min; vancomycin alone; untreated 18.67 ± 2.082
Procedure: as §6

Klebsiella pneumoniae [19] = experiment: DCFH-DA flow cytometry, ROS production; type: cell-based; details: single agents, time not stated; untreated 0.1%
[20] = test system: S. aureus and K. pneumoniae cells; experiment: Hydroxyl radical estimation with HPF dye; type: cell-based, Staphylococcus aureus and Klebsiella pneumoniae; details: one hour treatment, compared to untreated cells
Procedure: The fluorescent reporter dye 3′-(p-hydroxyphenyl) fluorescein (HPF) was used for […] free radical detection as described previously. Overnight cultures were diluted 1:250 with 25 ml of BHI broth in 250 ml flasks and incubated at 37 °C, with shaking (200 rpm). Cells were grown until they reached the OD600 ~ 0.3. Five hundred microliters sample was taken from the flasks and transferred to an 8-well plate for treatments. […] The supernatant was exchanged with phosphate buffered saline supplemented with […] HPF with incubation in the dark at room temperature for 15 min and re-pelleted by centrifugation at 10,000 rpm. The supernatant was removed and replaced with 1 × PBS for fluorimetry measurements.

[21] = antibiotic with native curcumin (8 µg/ml)

Compound: O=C(O)c1cn(C2CC2)c2cc(N3CCNCC3)c(F)cc2c1=O [Ciprofloxacin, ciprofloxacin]
- MBC ([1]; read-out: MBC): 64 µg/mL (≈ 193 µM)
- MBC ([2]; read-out: MBC): 128 µg/mL (≈ 386 µM)
- MBC ([3]; read-out: MBC): 256 µg/mL (≈ 773 µM)
- MBC ([4]; read-out: MBC): 64 µg/mL (≈ 193 µM)
- MIC ([5]; read-out: MIC): 0.25 µg/mL (≈ 0.754 µM)
- MBC ([5]; ATCC25922, read-out: MBC): 0.5 µg/mL (≈ 1.51 µM)
- MIC ([6]; read-out: MIC): 0.5 µg/mL (≈ 1.51 µM)
- MBC ([6]; ATCC700603, read-out: MBC): 1 µg/mL (≈ 3.02 µM)
- MIC ([7]; read-out: MIC): 0.5 µg/mL (≈ 1.51 µM)
- MBC ([7]; ATCC25619, read-out: MBC): 1 µg/mL (≈ 3.02 µM)
- MIC ([8]; read-out: MIC): 0.25 µg/mL (≈ 0.754 µM)
- MBC ([8]; ATCC29213, read-out: MBC): 0.5 µg/mL (≈ 1.51 µM)
- MIC ([9]; read-out: MIC): < 0.25 µg/mL
- MBC ([9]; ATCC35984, read-out: MBC): 0.5 µg/mL (≈ 1.51 µM)
- MIC ([10]; MDR isolates, antibiotics alone, read-out: MIC): 64 µg/mL (≈ 193 µM)

Compound: COc1cc(/C=C/C(=O)CC(=O)/C=C/c2ccc(O)c(OC)c2)ccc1O [Curcumin, curcumin]
- MIC ([1]; read-out: MIC): 512 µg/mL (≈ 1390 µM)
- MBC ([1]; read-out: MBC): ≥ 1020 µg/mL
- MIC ([2]; read-out: MIC): 512 µg/mL (≈ 1390 µM)
- MBC ([2]; read-out: MBC): ≥ 1020 µg/mL
- MIC ([3]; read-out: MIC): ≥ 1020 µg/mL
- MBC ([3]; read-out: MBC): ≥ 1020 µg/mL
- MIC ([4]; read-out: MIC): 256 µg/mL (≈ 695 µM)
- MBC ([4]; read-out: MBC): ≥ 1020 µg/mL
- MIC ([5]; read-out: MIC): 256 µg/mL (≈ 695 µM)
- MBC ([5]; ATCC25922, read-out: MBC): ≥ 1020 µg/mL
- MIC ([6]; read-out: MIC): 256 µg/mL (≈ 695 µM)
- MBC ([6]; ATCC700603, read-out: MBC): ≥ 1020 µg/mL
- MIC ([7]; read-out: MIC): 512 µg/mL (≈ 1390 µM)
- MBC ([7]; ATCC25619, read-out: MBC): ≥ 1020 µg/mL
- MIC ([8]; read-out: MIC): 128 µg/mL (≈ 347 µM)
- MBC ([8]; ATCC29213, read-out: MBC): ≥ 1020 µg/mL
- MIC ([9]; read-out: MIC): 128 µg/mL (≈ 347 µM)
- MBC ([9]; ATCC35984, read-out: MBC): ≥ 1020 µg/mL
- right shifting of the population, DPH (Klebsiella pneumoniae [11]): significant right shifting
- right shifting of the population, DiSC3-5 (Klebsiella pneumoniae [12]): 35%

Compound: C[C@@H](O)[C@H]1C(=O)N2C(C(=O)O)=C(S[C@@H]3CN[C@H](C(=O)N(C)C)C3)[C@H](C)[C@H]12 [Meropenem, meropenem]
- MIC ([1]; read-out: MIC): 64 µg/mL (≈ 167 µM)
- MBC ([2]; read-out: MBC): 256 µg/mL (≈ 668 µM)
- MBC ([3]; read-out: MBC): 256 µg/mL (≈ 668 µM)
- MIC ([5]; read-out: MIC): 0.25 µg/mL (≈ 0.652 µM)
- MBC ([5]; ATCC25922, read-out: MBC): 1 µg/mL (≈ 2.61 µM)
- MIC ([6]; read-out: MIC): 0.5 µg/mL (≈ 1.3 µM)
- MBC ([6]; ATCC700603, read-out: MBC): 1 µg/mL (≈ 2.61 µM)
- MIC ([7]; read-out: MIC): 0.5 µg/mL (≈ 1.3 µM)
- MBC ([7]; ATCC25619, read-out: MBC): 1 µg/mL (≈ 2.61 µM)
- modified MIC [13, 21]: 64 µg/mL
- modified MIC ([13]; antibiotic with sCur (8 µg/ml)): 1 µg/mL
- modified MIC ([14]; antibiotic with sCur (8 µg/ml)): 2 µg/mL
- modified MIC ([15]; antibiotic with sCur (8 µg/ml)): 4 µg/mL

Compound: CN[C@H](CC(C)C)C(=O)N[C@H]1C(=O)N[C@@H](CC(N)=O)C(=O)N[C@H]2C(=O)N[C@H]3C(=O)N[C@H](C(=O)N[C@H](C(=O)O)c4cc(O)cc(O)c4-c4cc3ccc4O)[C@H](O)c3ccc(c(Cl)c3)Oc3cc2cc(c3O[C@@H]2O[C@H](CO)[C@@H](O)[C@H](O)[C@H]2O[C@H]2C[C@](C)(N)[C@H](O)[C@H](C)O2)Oc2ccc(cc2Cl)[C@H]1O [Vancomycin, vancomycin]
- MBC [1]: ≥ 1020 µg/mL
- MIC [1]: 512 µg/mL (≈ 353 µM)
- MBC [2]: ≥ 1020 µg/mL
- MIC [2]: 512 µg/mL (≈ 353 µM)
- MBC [3]: ≥ 1020 µg/mL
- MIC [3]: 1020 µg/mL (≈ 707 µM)
- MBC [4]: 2 µg/mL (≈ 1.38 µM)
- MIC [4]: 1 µg/mL (≈ 0.69 µM)
- MBC ([5]; ATCC25922): ≥ 1020 µg/mL
- MIC [5]: 256 µg/mL (≈ 177 µM)
- MBC ([6]; ATCC700603): ≥ 1020 µg/mL
- MIC [6]: 256 µg/mL (≈ 177 µM)
- MBC ([7]; ATCC25619): ≥ 1020 µg/mL
- MIC [7]: 1020 µg/mL (≈ 707 µM)
- MBC ([8]; ATCC29213): 2 µg/mL (≈ 1.38 µM)
- MIC [8]: 0.5 µg/mL (≈ 0.345 µM)
- MBC ([9]; ATCC35984): 1 µg/mL (≈ 0.69 µM)
- MIC [9]: 0.25 µg/mL (≈ 0.173 µM)
- MIC [10]: 512 µg/mL (≈ 353 µM)
- MIC ([16]; read-out: Modified MIC): 1 µg/mL (≈ 0.69 µM)
- MIC ([16]; read-out: modified MIC): 0.25 µg/mL (≈ 0.173 µM)
- modified MIC [13, 21]: 512 µg/mL
- modified MIC ([13]; antibiotic with sCur (8 µg/ml)): 8 µg/mL
- modified MIC [14, 21]: 512 µg/mL
- modified MIC ([14]; antibiotic with sCur (8 µg/ml)): 16 µg/mL
- modified MIC [15, 21]: 1024 µg/mL
- modified MIC ([15]; antibiotic with sCur (8 µg/ml)): 16 µg/mL
- DPH fluorescence intensity [17]: 89.21 ± 2.614 a.u.
- DPH fluorescence intensity (MRSA clinical isolate): 84.24 ± 1.875 a.u.
- right shifting of the population, DPH (Klebsiella pneumoniae [11]): mild right shifting
- DiSC3-5 fluorescence intensity [18]: 32.07 ± 5.224 a.u.
- cell population that took up DCFDA, ROS generation (gate M3) (Klebsiella pneumoniae [19]): 38.6%
- HPF fluorescence, OH radical production [20]: fair increase in the fluorescence
- right shifting of the population, DiSC3-5 (Klebsiella pneumoniae [12]): 0.6%
